In this assay the target is T1, guanylate cyclase (Oryctolagus cuniculus, UniProt G1TXB5).
T1 sequence (G1TXB5 28-1056): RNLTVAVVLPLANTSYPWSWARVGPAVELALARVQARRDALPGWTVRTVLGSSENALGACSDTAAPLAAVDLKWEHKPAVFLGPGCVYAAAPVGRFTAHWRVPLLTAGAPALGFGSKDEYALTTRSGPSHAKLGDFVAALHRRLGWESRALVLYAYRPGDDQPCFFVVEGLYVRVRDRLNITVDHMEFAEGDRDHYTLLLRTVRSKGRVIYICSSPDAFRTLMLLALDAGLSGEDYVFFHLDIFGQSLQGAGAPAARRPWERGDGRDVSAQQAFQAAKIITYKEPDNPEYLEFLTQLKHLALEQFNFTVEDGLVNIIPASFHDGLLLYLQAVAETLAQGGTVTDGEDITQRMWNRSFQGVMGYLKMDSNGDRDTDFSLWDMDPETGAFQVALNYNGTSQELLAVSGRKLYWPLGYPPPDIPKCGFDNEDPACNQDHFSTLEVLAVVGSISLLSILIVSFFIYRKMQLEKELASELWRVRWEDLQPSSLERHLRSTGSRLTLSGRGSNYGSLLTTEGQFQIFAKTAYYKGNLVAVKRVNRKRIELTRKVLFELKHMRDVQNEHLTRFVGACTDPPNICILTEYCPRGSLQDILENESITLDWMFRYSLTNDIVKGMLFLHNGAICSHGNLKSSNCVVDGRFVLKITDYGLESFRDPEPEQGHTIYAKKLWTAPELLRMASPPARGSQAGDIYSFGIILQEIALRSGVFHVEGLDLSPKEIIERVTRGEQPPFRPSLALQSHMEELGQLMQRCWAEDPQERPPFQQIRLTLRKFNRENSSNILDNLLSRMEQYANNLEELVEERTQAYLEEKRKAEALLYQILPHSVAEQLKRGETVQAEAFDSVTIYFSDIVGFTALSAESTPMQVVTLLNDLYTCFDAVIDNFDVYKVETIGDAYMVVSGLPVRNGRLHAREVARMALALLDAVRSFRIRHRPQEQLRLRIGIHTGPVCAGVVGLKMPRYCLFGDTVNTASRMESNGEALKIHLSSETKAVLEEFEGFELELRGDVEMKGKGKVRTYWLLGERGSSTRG
The assay is described as follows: Atriopeptin-activated guanylate cyclase in ciliary process membrane (P1) fractions. Also noted: tissues were homogenized (10 mg wet weight per milliliter); from tissue; host or cells: rabbit cerebral microvessels, choroid plexus, kidney, ciliary process, pia-arachnoid, cerebellum; 100,000 g P1 pellet. The format is biochemical, rabbit. Particulars: mean ± range of duplicate determinations. The procedure: Ciliary process tips were obtained from male, 3-4 kg, New Zealand white rabbits, immediately following sacrifice with an overdose of ether, as described in Nathanson, Invest. Ophthal. Vis. Sci., 21:7981 (1982). The tissue was minced and homogenized (10 mg/ml) by hand in a glass-glass homogenizer in a buffer consisting of 50 mM Tris HCl, pH 8.0; 1mM EDTA, and 250mM sucrose. The homogenate was diluted 30-fold with buffer and centrifuged at 100,000 x g, to obtain a P1 fraction. The pellet was rehomogenized in the original volume and left on ice until use. P1 fractions were also prepared from wedges of rabbit kidney taken from the same animals. In some experiments, P1 fractions were prepared from iris and from ciliary body, as described in Nathanson, Proc. Natl. Acad. Sci. USA, 77:7420 (1980). Briefly, iris was removed from its attachment to the ciliary body, cleaned of adhering ciliary process tissue, washed, and homogenized as above. The ciliary muscle was cleaned of most remaining ciliary process tissue, freed from the underlying sclera by blunt and sharp dissection, and then washed and homogenized.
Atriopeptin-activated guanylate cyclase activity was measured as the rate of conversion of GTP to cyclic GMP. […]
For RIA, each tube contained (in 0.5ml), 50mM sodium acetate buffer (pH 6.2), 2mM EDTA, 1mg/ml bovine serum albumin, 0.1 ml of sample (or diluted sample), 8,000-15,000 cpm (about 5 fmole) of ¹²⁵I succinyl cyclic GMP tyrosine methyl ester, and antibody to bind 25-35% of the label. […] Activation constants (Ka) were determined from dose-response curves utilizing 12-14 data points (6-7 concentrations of hormone, in duplicate), each point representing the mean of triplicate RIA determinations.
Atriopeptin-activated guanylate cyclase activity was measured, as described in Example 5, in membranes from rabbit kidney and ciliary process prepared as in Example 4. […]

As to “Ser-Leu-Arg-Arg-atriopeptin III (APIII) [rANP 1-28]”, the “Vmax Stimulation (%) of Guanylate Cyclase Ciliary Process” value came to 124 ± 5%. Then “rANP 13-28 (DRIGAQSGLGCNSFRY; Atrial natriuretic peptide; UniProt P01161 135-150, looked up, fragment)”, with 51 ± 5%.

The record behind these values is patent EP0583821A1, “Atriopeptins, guanylate cyclase activators, and phosphodiesterase inhibitors as treatment for glaucoma, hydrocephalus and cerebral edema (cranial fluid volume dysfunction)” (THE GENERAL HOSPITAL CORPORATION, priority 1987, dated 1988).
